Laboratory results reported in ChEMBL document CHEMBL1201862, “PubChem BioAssay data set” (2004).
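Dose response: 5 concentrations. Exposure: 48 h. Format: 96-well plates. Endpoint: linear interpolation; highest concentration if not reached. Abbreviation: GI50, concentration required for 50% inhibition of growth.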 The source made the active and inactive calls. Rule as the data show it: active = GI50 up to about 1.1 µM and inactive = higher.

Columns and labels:
Assay in all cases: inhibition of tumour cell growth, NCI panel, 48 h
EKVX = test system: EKVX
RPMI-8226 = test system: RPMI-8226
CCRF-CEM = test system: CCRF-CEM
SF-539 = test system: SF-539
SK-MEL-5 = test system: SK-MEL-5
HT-29 = test system: HT-29
A498 = test system: A498
MDA-MB-231 = test system: MDA-MB-231
DU-145 = test system: DU-145
COLO 205 = test system: COLO 205
MOLT-4 = test system: MOLT-4
KM12 = test system: KM12
ACHN = test system: ACHN
HOP-92 = test system: HOP-92
HOP-62 = test system: HOP-62
T47D = test system: T47D
MCF7 = test system: MCF7
A549 = test system: A549
UACC-62 = test system: UACC-62
HCT-15 = test system: HCT-15
CAKI-1 = test system: CAKI-1
Malme-3M = test system: Malme-3M
K562 = test system: K562
OVCAR-4 = test system: OVCAR-4
NCI/ADR-RES = test system: NCI/ADR-RES
OVCAR-3 = test system: OVCAR-3
BT-549 = test system: BT-549
HL-60 = test system: HL-60
NCI-H226 = test system: NCI-H226
SK-MEL-28 = test system: SK-MEL-28
MDA-MB-435 = test system: MDA-MB-435
SF-268 = test system: SF-268
SN12C = test system: SN12C
Hs-578T = test system: Hs-578T
TK-10 = test system: TK-10
SK-OV-3 = test system: SK-OV-3
SR = test system: SR
HCT-116 = test system: HCT-116
SNB-19 = test system: SNB-19
UO-31 = test system: UO-31
NCI-H23 = test system: NCI-H23
SK-MEL-2 = test system: SK-MEL-2
RXF 393 = test system: RXF 393
MDA-N = test system: MDA-N
OVCAR-5 = test system: OVCAR-5
786-0 = test system: 786-0
SW-620 = test system: SW-620
LOX IMVI = test system: LOX IMVI
NCI-H522 = test system: NCI-H522
SNB-75 = test system: SNB-75
HCC 2998 = test system: HCC 2998
SF-295 = test system: SF-295
NCI-H460 = test system: NCI-H460
OVCAR-8 = test system: OVCAR-8
PC-3 = test system: PC-3
U-251 = test system: U-251
IGROV-1 = test system: IGROV-1
M14 = test system: M14
UACC-257 = test system: UACC-257

c1ccc2c(c1)CN1CCCC1CN2 (stereo not drawn)
GI50 (EKVX): > 100 µM (inactive)
GI50 (RPMI-8226): > 100 µM (inactive)
GI50 (CCRF-CEM): > 100 µM (inactive)
GI50 (SF-539): > 100 µM (inactive)
GI50 (SK-MEL-5): > 100 µM (inactive)
GI50 (HT-29): > 100 µM (inactive)
GI50 (A498): > 100 µM (inactive)
GI50 (MDA-MB-231): > 100 µM (inactive)
GI50 (DU-145): > 100 µM (inactive)
GI50 (COLO 205): > 100 µM (inactive)
GI50 (MOLT-4): > 100 µM (inactive)
GI50 (KM12): > 100 µM (inactive)
GI50 (ACHN): > 100 µM (inactive)
GI50 (HOP-92): > 100 µM (inactive)
GI50 (HOP-62): > 100 µM (inactive)
GI50 (T47D): > 100 µM (inactive)
GI50 (MCF7): > 100 µM (inactive)
GI50 (A549): > 100 µM (inactive)
GI50 (UACC-62): > 100 µM (inactive)
GI50 (HCT-15): > 100 µM
GI50 (CAKI-1): > 100 µM (inactive)
GI50 (Malme-3M): > 100 µM (inactive)
GI50 (K562): > 100 µM (inactive)
GI50 (OVCAR-4): > 100 µM (inactive)
GI50 (NCI/ADR-RES): > 100 µM (inactive)
GI50 (OVCAR-3): > 100 µM (inactive)
GI50 (BT-549): > 100 µM (inactive)
GI50 (HL-60): > 100 µM (inactive)
GI50 (NCI-H226): > 100 µM (inactive)
GI50 (SK-MEL-28): > 100 µM (inactive)
GI50 (MDA-MB-435): > 100 µM (inactive)
GI50 (SF-268): > 100 µM (inactive)
GI50 (SN12C): > 100 µM (inactive)
GI50 (Hs-578T): > 100 µM (inactive)
GI50 (TK-10): > 100 µM (inactive)
GI50 (SK-OV-3): > 100 µM (inactive)
GI50 (SR): > 100 µM (inactive)
GI50 (HCT-116): > 100 µM (inactive)
GI50 (SNB-19): > 100 µM (inactive)
GI50 (UO-31): > 100 µM (inactive)
GI50 (NCI-H23): > 100 µM (inactive)
GI50 (SK-MEL-2): > 100 µM (inactive)
GI50 (RXF 393): > 100 µM (inactive)
GI50 (MDA-N): > 100 µM (inactive)
GI50 (OVCAR-5): > 100 µM (inactive)
GI50 (786-0): > 100 µM (inactive)
GI50 (SW-620): > 100 µM (inactive)
GI50 (LOX IMVI): > 100 µM (inactive)
GI50 (NCI-H522): > 100 µM (inactive)
GI50 (SNB-75): > 100 µM (inactive)
GI50 (HCC 2998): > 100 µM (inactive)
GI50 (SF-295): > 100 µM (inactive)
GI50 (NCI-H460): > 100 µM (inactive)
GI50 (OVCAR-8): > 100 µM (inactive)
GI50 (PC-3): > 100 µM (inactive)
GI50 (U-251): > 100 µM (inactive)
GI50 (IGROV-1): > 100 µM (inactive)
GI50 (M14): > 100 µM (inactive)
GI50 (UACC-257): > 100 µM (inactive)

COc1ccc(Nc2n[nH]c(NS(=O)(=O)c3cc(C)c(Cl)cc3S)n2)cc1
GI50 (EKVX): > 100 µM (inactive)
GI50 (RPMI-8226): > 100 µM (inactive)
GI50 (CCRF-CEM): > 100 µM (inactive)
GI50 (SF-539): > 100 µM (inactive)
GI50 (SK-MEL-5): > 100 µM (inactive)
GI50 (HT-29): > 100 µM (inactive)
GI50 (A498): > 100 µM (inactive)
GI50 (MDA-MB-231): > 100 µM (inactive)
GI50 (DU-145): > 100 µM (inactive)
GI50 (COLO 205): > 100 µM (inactive)
GI50 (MOLT-4): > 100 µM (inactive)
GI50 (KM12): > 100 µM (inactive)
GI50 (ACHN): > 100 µM (inactive)
GI50 (HOP-92): > 100 µM (inactive)
GI50 (HOP-62): > 100 µM (inactive)
GI50 (T47D): > 100 µM (inactive)
GI50 (MCF7): > 100 µM (inactive)
GI50 (A549): > 100 µM (inactive)
GI50 (UACC-62): > 100 µM (inactive)
GI50 (HCT-15): > 100 µM
GI50 (CAKI-1): > 100 µM (inactive)
GI50 (Malme-3M): > 100 µM (inactive)
GI50 (K562): > 100 µM (inactive)
GI50 (OVCAR-4): > 100 µM (inactive)
GI50 (NCI/ADR-RES): > 100 µM (inactive)
GI50 (OVCAR-3): > 100 µM (inactive)
GI50 (BT-549): > 100 µM (inactive)
GI50 (HL-60): > 100 µM (inactive)
GI50 (NCI-H226): > 100 µM (inactive)
GI50 (SK-MEL-28): > 100 µM (inactive)
GI50 (MDA-MB-435): > 100 µM (inactive)
GI50 (SF-268): > 100 µM (inactive)
GI50 (SN12C): > 100 µM (inactive)
GI50 (Hs-578T): > 100 µM (inactive)
GI50 (TK-10): > 100 µM (inactive)
GI50 (SK-OV-3): > 100 µM (inactive)
GI50 (SR): > 100 µM (inactive)
GI50 (HCT-116): > 100 µM (inactive)
GI50 (SNB-19): > 100 µM (inactive)
GI50 (UO-31): > 100 µM (inactive)
GI50 (NCI-H23): > 100 µM (inactive)
GI50 (SK-MEL-2): > 100 µM (inactive)
GI50 (RXF 393): > 100 µM (inactive)
GI50 (MDA-N): > 100 µM (inactive)
GI50 (OVCAR-5): > 100 µM (inactive)
GI50 (786-0): > 100 µM (inactive)
GI50 (SW-620): > 100 µM (inactive)
GI50 (LOX IMVI): > 100 µM (inactive)
GI50 (NCI-H522): > 100 µM (inactive)
GI50 (SNB-75): > 100 µM (inactive)
GI50 (HCC 2998): > 100 µM (inactive)
GI50 (SF-295): > 100 µM (inactive)
GI50 (NCI-H460): > 100 µM (inactive)
GI50 (OVCAR-8): > 100 µM (inactive)
GI50 (PC-3): > 100 µM (inactive)
GI50 (U-251): > 100 µM (inactive)
GI50 (IGROV-1): > 100 µM (inactive)
GI50 (M14): > 100 µM (inactive)
GI50 (UACC-257): > 100 µM (inactive)
